Measurements: patent publication US8962263B2, “Methods and compositions for detecting the activation state of multiple proteins in single cells” (The Board of Trustees of the Leland Stanford Junior …, priority 2001, dated 2015)

Assays:
NIH3T3 = assay: staurosporine induced apoptosis in ICAM-2 transduced NIH3T3 (annexin-V binding, BrdU TUNEL); format: cell-based, murine
Method: A) Pharmacological inhibitors of PI3K abrogate ICAM-2's anti-apoptotic. ICAM-2, or vector transduced BaF3, cells were treated with staurosporine (1, μM) with (unfilled) or without (filled) the addition of 100, nM wortmannin for 24, hours (left bar graph). Apoptosis was determined by nuclear staining and fluorescence microscopy (left bar graph) and by annexin-V binding assay (right bar graph). The proportion of apoptotic cells in each culture without staurosporine was 8%+/−2. The percentage of apoptotic cells is expressed as the mean (bar)+SD of triplicate cultures. ICAM-2, 1CAM2-AC, or vector transduced NIH3T3, were treated with staurosporine ([…]) in the presence or absence of 10, μM LY294002, for 24, hours (right bar graph). DMSO vehicle served as negative control. The percentage of apoptotic cells is expressed as the mean (bar)+/−SD of triplicate cultures. B) Confocal images of PI3K and AKT localization in ICAM-2, (top) or vector control cells (bottom). C) Confocal images of ezrin and the p85, subunit of PI3K (green) localization in ICAM-2, (top) or vector control cells (bottom).
A) The anti-apoptotic effect of ICAM-2, is both wortmannin and LY294002, sensitive. ICAM-2, or vector transduced BaF3, cells were treated with staurosporine (1, μM) with (unfilled) or without (filled) the addition of 100, nM wortmannin for 24 hours. Apoptosis was determined by nuclear staining and fluorescence microscopy (left bar graph) and by annexin-V binding assay (right bar graph). The proportion of apoptotic cells in each culture without staurosporine was 8%±2. The percentage of apoptotic cells is expressed as the mean (bar)±SD of triplicate cultures. ICAM-2, ICAM2-ΔC, or vector transduced NIH3T3, were treated with staurosporine (1, μM) in the presence or absence of 10, μM LY294002, for 24, hours. DMSO vehicle served as negative control. The percentage of apoptotic cells is expressed as the mean (bar)±SD of triplicate cultures. B) ICAM-2, expressing NIH3T3, cells are sensitive to apoptosis in the presence of PI3K inhibitor LY294002. BrdU TUNEL assay was performed in staurosporine (1, μM) or LY294002, (10, μM) treated ICAM-2, ICAM2-ΔC, and control vector transduced NIH3T3, cells. The percentage of apoptotic cells is expressed as the mean (bar)±SD of triplicate cultures.
Apoptosis was determined either by counting pyknotic nuclei, annexin-V binding by flow cytometry, or TUNEL BrdU staining by flow cytometry as indicated. Apoptosis was induced either by staurosporine (1 μm), treatment with anti-mouse Fas (5 μq/ml Santa Cruz Biotechnology (SCB), […] Fas (5 μg/ml Jo2 Biomed) or anti-human Fas (10 ng/ml CH11 Kamiya Biomedical) as indicated in appropriate experiment, IL-3 withdrawal-(24 hrs) or as indicated. For pyknolic nuclei count, NIH3T3 cells were grown on glass coverslips and assayed for apoptosis. Suspension cells were analyzed by nuclear staining with 25 μM acridine orange/25 μm ethidium bromide or 5 μg/ml Hoechst 33342 (Molecular Probes, Eugene, Oreg.). Apoptosis was identified by the presence of characteristic pyknotic nuclei as described (Jacobson and Raff, 1995). At least 5 individual fields were photographed and counted using a Zeiss axioscope fluorescence microscope. For the survival assay 10^6 NIH3T3 cells were plated in 10 cm dishes and incubated overnight at 37° C. The cells were treated with 1 μM staurosporine for 24 hours. The cells were washed and cultured for 24 hours in complete medium. The cells were trypsinized and viable cells counted following trypan blue staining. Untreated cells were counted at the time of treatment. % survival represents (number of viable cells post-treatment)/(number of viable cells pretreatment). FACS based annexin-V-FITC/PI staining was done as described (PharMingen). TUNEL assay was performed as described by manufacturer of Apoptosis BrdU kit (Promega). […]

human naïve T-cells = assay: T cell activation by CD25 and CD69 markers in human naïve T cells; format: cell-based; settings: combined with CD3/CD28 stimulation
Method: A) Intracellular detection of IL-2, of titration of CD3/CD28, vs. LFA-1, stimulus or CD3, vs. CD28, stimulus for 6, hours. Median Fluorescent intensity is plotted as a visual array. B) Bivariate analysis of CD69, and CD25 expression in unstimulated, CD3/CD28/LFA-1, (0.001, μg/ml, 1:1:1) stimulated, and CD3/CD28, (10 μg/ml) stimulated CD4, T cells. C) Bivariate plot of CD69, expression and intracellular detection of IL-2, post 12, hour stimulation of unstimulated, CD3/CD28, and CD3/CD28/LFA-1, stimulation.
Intracellular and extracellular staining was performed as described for phospho-staining (Perez and Nolan, 2002). […] Four or less color flow cytometry data acquisition was collected on a FACSCalibur machine (Beckton Dickinson, San Jose Calif.) using CELLQuest software, analyzed and presented using FlowJo software (Tree Star, San Carlos, California). […] Data were collected by FACS-Desk software and compensated, analyzed, and presented using FlowJo software. […] Ratios of intracellular flow cytometric measurements were calculated from the following equation where MFI equals mean fluorescent intensity: Log [(MFIexperimental−MFIisotype mAb)/(MFIcontrol−MFlisotype mAb)].

Molecule	ICAM-2 induced survival signal (NIH3T3; PKC isozyme inhibitors, system not specified)	effect on ICAM-2 anti-apoptotic effect, other kinase inhibitors (NIH3T3; cell type not stated, data not shown)	lowering of the CD3/CD28 stimulus threshold (human naïve T-cells)
CN(C)CCCn1cc(C2=C(c3c[nH]c4ccccc34)C(=O)NC2=O)c2ccccc21 [bisindolymaleimide I]	did not abrogate	not abrogated	
ICAM-2: biochemically purified soluble human ICAM-2 protein from retrovirally transduced NIH3T3 cells; ICAM-2-FC fusion also used (protein, UniProt P13598 25-223, looked up, extracellular domain, biochemically purified soluble human ICAM-2 protein from retrovirally transduced NIH3T3 cells; ICAM-2-FC fusion also used) extracellular domain: KVFEVHVRPKKLAVEPKGSLEVNCSTTCNQPEVGGLETSLDKILLDEQAQWKHYLVSNISHDTVLQCHFTCSGKQESMNSNVSVYQPPRQVILTLQPTLVAVGKSFTIECRVPTVEPLDSLTLFLFRGNETLHYETFGKAAPAPQEATATFNSTADREDGHRNFSCLAVLDLMSRGGNIFHKHSAPKMLEIYEPVSDSQ			10,000 fold
